System: c-Myc
Experiment: c-Myc immunofluorescence assay
Assay type: cell-based, human
Conditions: A549 cells, 24 hours treatment, anti-c-Myc immunofluorescence
How it was run: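 High-content imaging (20×) of PFA-fixed A549 cells immunostained for c-Myc with DAPI nuclei, after 24 h compound treatment at increasing concentrations. Per-cell c-Myc signal in identified cell regions was plotted against dose and fitted by logistic regression to give EC50.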

SMILES | Myc Efficacy (−LogEC50)
CNC(=O)c1ccc(-c2cn3c(n2)sc2cc(C(=O)NC(C)C4CCOCC4)ccc23)cc1 (stereo not drawn) [compound 234, 2-(4-(methylcarbamoyl)phenyl)-N-(1-(tetrahydro-2H-pyran-4-yl)ethyl)benzo[d]imidazo [2,1-b]thiazole-7-carboxamide] | + (+ >3 and <5)
CNC(=O)c1ccc(-c2cn3c(n2)sc2cc(C(=O)NCCCn4ccnc4)ccc23)cc1 [compound 235, N-(3-(1H-imidazol-1-yl)propyl)-2-(4-(methylcarbamoyl)phenyl) benzo[d]imidazo[2,1-b]thiazole-7-carboxamide] | + (+ >3 and <5)
CNC(=O)c1ccc(-c2cn3c(n2)sc2cc(C(=O)NC4CC(=O)N(C)C4)ccc23)cc1 (stereo not drawn) [compound 236, N-(1-methyl-5-oxopyrrolidin-3-yl)-2-(4-(methylcarbamoyl)phenyl) benzo[d]imidazo[2,1-b]thiazole-7-carboxamide] | − (− ≤3)
CNC(=O)c1ccc(-c2cn3c(n2)sc2cc(C(=O)NC4(CO)CCOCC4)ccc23)cc1 [compound 237, N-(4-(hydroxymethyl)tetrahydro-2H-pyran-4-yl)-2-(4-(methylcarbamoyl)phenyl) benzo[d]imidazo[2,1-b]thiazole-7-carboxamide] | − (− ≤3)
CNC(=O)c1ccc(-c2cn3c(n2)sc2cc(C(=O)N[C@H]4[C@H]5CN[C@@H]4C5)ccc23)cc1 [compound 238, N-((1R,4R,5S)-2-azabicyclo[2.1.1]hexan-5-(methylcarbamoyl)phenyl) benzo[d]imidazo[2,1-b]thiazole-7-carboxamide] | − (− ≤3)
CNC(=O)c1ccc(-c2cn3c(n2)sc2cc(C(=O)NC4CC4OC)ccc23)cc1 (stereo not drawn) [compound 240, N-(2-methoxycyclopropyl)-2-(4-(methylcarbamoyl)phenyl) benzo[d]imidazo[2,1-b] thiazole-7-carboxamide] | + (+ >3 and <5)
CNC(=O)c1ccc(-c2cn3c(n2)sc2cc(C(=O)NC4CC5(CNC5)C4)ccc23)cc1 [compound 241, 2-(4-(methylcarbamoyl)phenyl)-N-(2-azaspiro[3.3]heptan-6-yl)benzo[d]imidazo[2,1-b] thiazole-7-carboxamide] | + (+ >3 and <5)
CC[C@H](NC(=O)c1ccc2c(c1)sc1nc(-c3ccc(C(=O)NC)cc3)cn12)c1ccnn1C [compound 242, (S)-N-(1-(1-methyl-1H-pyrazol-5-yl)propyl)-2-(4-(methylcarbamoyl)phenyl) benzo[d]imidazo[2,1-b] thiazole-7-carboxamide] | + (+ >3 and <5)
CCc1nccn1CCNC(=O)c1ccc2c(c1)sc1nc(-c3ccc(C(=O)NC)cc3)cn12 [compound 243, N-(2-(2-ethyl-1H-imidazol-1-yl)ethyl)-2-(4-(methylcarbamoyl)phenyl) benzo[d]imidazo[2,1-b] thiazole-7-carboxamide] | + (+ >3 and <5)
CNC(=O)c1ccc(-c2cn3c(n2)sc2cc(C(=O)NCC(C)(C)N4CCOCC4)ccc23)cc1 [compound 244, N-(2-methyl-2-morpholinopropyl)-2-(4-(methylcarbamoyl)phenyl) benzo[d]imidazo[2,1-b] thiazole-7-carboxamide] | − (− ≤3)
CNC(=O)c1ccc(-c2cn3c(n2)sc2cc(C(=O)N[C@H]4C[C@@H](OC)C4)ccc23)cc1 [compound 245, N-((1s,3s)-3-methoxycyclobutyl)-2-(4-(methylcarbamoyl)phenyl) benzo[d]imidazo[2,1-b] thiazole-7-carboxamide] | − (− ≤3)
CNC(=O)c1ccc(-c2cn3c(n2)sc2cc(C(=O)N[C@H]4C[C@@H](NC)C4)ccc23)cc1 [compound 246, N-((1s,3s)-3-(methylamino)cyclobutyl)-2-(4-(methylcarbamoyl)phenyl) benzo[d]imidazo[2,1-b] thiazole-7-carboxamide] | + (+ >3 and <5)
CNC(=O)c1ccc(-c2cn3c(n2)sc2cc(C(=O)N[C@H]4C[C@H](NC)C4)ccc23)cc1 [compound 247, N-((1r,3r)-3-(methylamino)cyclobutyl)-2-(4-(methylcarbamoyl)phenyl) benzo[d]imidazo[2,1-b] thiazole-7-carboxamide] | − (− ≤3)
Cc1cccc(-c2cn3c(n2)sc2cc(C(=O)NCCCN4CC5CC4CN5C)ccc23)c1 (stereo not drawn) [compound 248, N-(3-(5-methyl-2,5-diazabicyclo[2.2.1]heptan-2-yl)propyl)-2-(m-tolyl)benzo[d]imidazo[2,1-b]thiazole-7-carboxamide] | + (+ >3 and <5)
CNC(=O)c1ccc(-c2cn3c(n2)sc2cc(C(=O)NCCCN4CC5CC4CN5C)ccc23)cc1 (stereo not drawn) [compound 249, N-(3-(5-methyl-2,5-diazabicyclo[2.2.1]heptan-2-yl)propyl)-2-(4-(methylcarbamoyl)phenyl) benzo[d]imidazo[2,1-b]thiazole-7-carboxamide] | − (− ≤3)
CNC(=O)c1ccc(-c2cn3c(n2)sc2cc(C(=O)N4CCN(CC(N)=O)CC4)ccc23)cc1 [compound 250, 4-(7-(4-(2-amino-2-oxoethyl)piperazine-1-carbonyl)benzo[d]imidazo [2,1-b]thiazol-2-yl)-N-methylbenzamide] | + (+ >3 and <5)
CNC(=O)c1ccc(-c2cn3c(n2)sc2cc(C(=O)NCC4(N)CC4)ccc23)cc1 [compound 251, N-((1-aminocyclopropyl)methyl)-2-(4-(methylcarbamoyl)phenyl) benzo[d]imidazo[2,1-b]thiazole-7-carboxamide] | − (− ≤3)
CNC(=O)c1ccc(-c2cn3c(n2)sc2cc(C(=O)NCC4CC(=O)N(C)C4)ccc23)cc1 (stereo not drawn) [compound 252, N-((1-methyl-5-oxopyrrolidin-3-yl)methyl)-2-(4-(methylcarbamoyl)phenyl) benzo[d]imidazo[2,1-b]thiazole-7-carboxamide] | + (+ >3 and <5)
CNC(=O)c1ccc(-c2cn3c(n2)sc2cc(C(=O)N[C@H]4[C@@H]5CNC[C@@H]54)ccc23)cc1 [compound 253, N-((1R,5S,6s)-3-azabicyclo[3.1.0]hexan-6-yl)-2-(4-(methylcarbamoyl)phenyl) benzo[d]imidazo[2,1-b]thiazole-7-carboxamide] | + (+ >3 and <5)
CNC(=O)c1ccc(-c2cn3c(n2)sc2cc(C(=O)NCC4CCC(=O)N4C)ccc23)cc1 (stereo not drawn) [compound 254, N-((1-methyl-5-oxopyrrolidin-2-yl)methyl) 2-(4-(methylcarbamoyl)phenyl) benzo[d]imidazo[2,1-b]thiazole-7-carboxamide] | + (+ >3 and <5)
CNC(=O)c1ccc(-c2cn3c(n2)sc2cc(C(=O)NCC(=O)NCC(F)(F)F)ccc23)cc1 [compound 255, 2-(4-(methylcarbamoyl)phenyl)-N-(2-oxo-2-((2,2,2-trifluoroethyl)amino)ethyl) benzo[d]imidazo[2,1-b]thiazole-7-carboxamide] | − (− ≤3)
